This is an account of results in PubChem BioAssay AID1996.

≈ marks a conversion by molar mass, not a printed value.

For this data set the following is noted: buffer; pH 7.4; 200.0 µM.
In general, solubility (kinetic) refers to solubility judged after dilution from a stock solution rather than from solid. With `COc1cc2[nH]c(C(=O)NCC3CCCO3)cc2c(OC)c1OC` (centres undefined), the solubility (kinetic) was more than 50.2 µg/mL. In the case of `CCc1ccc(NC(=O)COC(=O)/C=C/c2ccco2)cc1`, the solubility (kinetic) was found to be 4.8 µg/mL (≈ 16 µM). `CC(=O)c1csc(COc2ccc(Cl)cc2)n1` registered a kinetic solubility of 3 µg/mL (≈ 11.2 µM). Next, `COc1cccc(C(=O)NCc2ccc3[nH]c(C)cc3c2)c1`: 15.8 µg/mL (≈ 53.7 µM); `CC(=O)c1c(C)[nH]c(C(=O)Nc2cccc3ccccc23)c1C`: 5.9 µg/mL (≈ 19.3 µM).

The compound `Cc1nc(-c2ccc(C(=O)Nc3cccc(F)c3)cc2)cs1` gave a kinetic solubility of less than 0.3 µg/mL.

Consider `Cc1nc2ccsc2c(=O)n1-c1cccc(Cl)c1`, for which the solubility (kinetic) is more than 41.5 µg/mL.

In turn, `Cc1noc(C)c1C(=O)NCC(=O)Nc1ccccc1Br` had a solubility (kinetic) of more than 52.8 µg/mL.

The compound `O=C(COC(=O)CNC(=O)c1ccccc1F)NCC(F)(F)F` showed a kinetic solubility of more than 50.4 µg/mL. On to `O=C(CCC(=O)c1cccs1)NCc1ccccc1Cl`, for which the solubility (kinetic) stood at 45.4 µg/mL (≈ 147 µM). As for `CCN(CC(=O)Nc1ccccc1OC)C(=O)CCc1ccccc1`, the figure is 46 µg/mL (≈ 135 µM).

Take `CC(C)(C)CC(C)(C)NC(=O)/C=C/C(=O)O`: the kinetic solubility was 29.1 µg/mL (≈ 128 µM). Next, `COc1ccc(CCNC(=O)C2C3CCC(C3)C2C(=O)O)cc1OC` (centres undefined): 43.7 µg/mL (≈ 126 µM); `Fc1ccccc1NC(=S)N1CCOCC1`: more than 36 µg/mL; `CC1CCCCC1NC(=O)CN1C(=O)COc2ccccc21` (centres undefined): 8.2 µg/mL (≈ 27.1 µM). As for `CCOc1ccc(-n2cnc3sc4c(c3c2=O)CCCC4)cc1`, the figure is 0.8 µg/mL (≈ 2.45 µM); as for `COc1ccc(C2c3c(noc3C)CC(C)(O)C2C(C)=O)cc1` (centres undefined), more than 47.3 µg/mL; as for `CCOc1ccc(NC(=O)CCC(=O)Oc2ccc(C)cc2)cc1`, 19.5 µg/mL (≈ 59.6 µM).

`CC1CCC2(CC1)NC(=O)N(CC(=O)NCc1ccc(Cl)cc1)C2=O` (centres undefined) had a kinetic solubility of 6.3 µg/mL (≈ 17.3 µM). As for `COCCCN1C(=O)CC(C(=O)OC)=C1C`, the figure is more than 34.1 µg/mL. As for `O=c1c2ccccc2nc(Cc2ccccc2)n1-c1ccccc1`, the figure is 39.5 µg/mL (≈ 126 µM). Next, `COc1ccc(CN2C(=O)CSC2c2ccncc2)cc1` (centres undefined): more than 45.1 µg/mL; `COc1ccc(NC(=O)c2ccc([N+](=O)[O-])o2)cc1`: 23.4 µg/mL (≈ 89.2 µM); `Cc1ccc(S(=O)(=O)NCC(=O)OCCOc2ccc(Br)cc2)cc1`: 3.8 µg/mL (≈ 8.87 µM).

In turn, `O=c1[nH]c(=O)n(-c2cccc(F)c2)c(O)c1/C=C1\C=Nc2ccccc21` yielded a solubility (kinetic) of 2.9 µg/mL (≈ 8.3 µM). Turning to `CN(C)c1ccncc1C(=O)Nc1ccc(F)cc1F`, the kinetic solubility was more than 41.6 µg/mL. As for `CC(=O)N1CCN(C(=O)CCC(=O)O)CC1`, the figure is 30.9 µg/mL (≈ 135 µM); as for `C=CCOC(=O)C1=C(C)NC(=O)NC1c1ccc(N(C)C)cc1` (centres undefined), 5.8 µg/mL (≈ 18.4 µM). On to `CCOc1ccccc1NC1=NC2CS(=O)(=O)CC2S1` (centres undefined), for which the solubility (kinetic) was more than 46.9 µg/mL. Next, `N#CC1=C(N)OC2=C(C(=O)CCC2)C1c1cc2c(cc1Cl)OCO2` (centres undefined): 17 µg/mL (≈ 49.3 µM); `OC(CN1CCC(Cc2ccccc2)CC1)c1ccccc1` (centres undefined): more than 44.3 µg/mL; `CCSc1nc2cc(S(=O)(=O)N3CCOCC3)ccc2o1`: more than 49.3 µg/mL. Next, `O=C(OCC(=O)N1CCCC1=O)C1COc2ccccc2O1` (centres undefined): more than 45.8 µg/mL. Next, `O=S(=O)(Nc1ncccn1)c1ccc(Cl)cc1`: 40.1 µg/mL (≈ 149 µM); `Cc1ccc(S(=O)(=O)NC(=O)C2CCCCC2)cc1`: more than 42.2 µg/mL.

In the case of `CC(NC(=O)COC(=O)c1ccc([N+](=O)[O-])o1)c1ccccc1` (centres undefined), the solubility (kinetic) is more than 47.7 µg/mL.

`Cc1cc(OCC(=O)Nc2ccc3oc(=O)ccc3c2)ccc1Cl`: the solubility (kinetic) was determined as 2.4 µg/mL (≈ 6.98 µM). Next, `CCCc1nnc(NC(=O)C2CC(=O)N(CCc3ccc(F)cc3)C2)s1` (centres undefined): more than 56.5 µg/mL. In turn, `CCCCN(C)C1CCN(C(=S)Nc2cccc(OC)c2)CC1` returned a solubility (kinetic) of more than 50.3 µg/mL. As for `CC(=O)c1cccc(NC(=O)CN(C)S(=O)(=O)c2ccccc2)c1`, the figure is more than 52 µg/mL. Next, `CN(C)C(=S)SCC(=O)NC(=O)NC(C)(C)C`: 39.4 µg/mL (≈ 142 µM); `O=[N+]([O-])c1ccc(CN2CCN(c3ccc([N+](=O)[O-])cc3)CC2)cc1`: 2 µg/mL (≈ 5.84 µM). In turn, `CCOc1ccc(Nc2nc3ccccc3n2C)cc1` showed a kinetic solubility of more than 40.1 µg/mL. Next, `CN1CCCC(OC(=O)c2cccc(Cl)c2)C1.Cl` (centres undefined): more than 43.5 µg/mL; `COc1ccc(C2C(C(C)=O)=C(C)Nc3ncnn32)cc1[N+](=O)[O-]` (centres undefined): more than 49.4 µg/mL. As for `Cc1ccc(NC(=O)c2cccnc2)cc1S(=O)(=O)N(C)C`, the figure is more than 47.9 µg/mL; as for `CN(C)C(=O)CN1C(=O)c2cccc3cccc1c23`, 33.1 µg/mL (≈ 130 µM); as for `CC1CCCCC12NC(=O)N(CC(=O)NCc1ccco1)C2=O` (centres undefined), more than 47.9 µg/mL. Compound `N#CC1(c2ccccc2)CCC(=O)N1c1ccccc1` (centres undefined) yielded a kinetic solubility of more than 39.3 µg/mL. As for `CC(C)C(NCC(=O)Nc1ccccc1C(=O)NC1CC1)c1ccccc1` (centres undefined), the figure is more than 54.8 µg/mL; as for `CC(C)CN1CCN(Cc2ccc(C(F)(F)F)cc2)CC1CCO` (centres undefined), 45.5 µg/mL (≈ 132 µM). As for `COc1cc2nc(CN3CCN(S(=O)(=O)c4ccccc4C(F)(F)F)CC3)[nH]c(=O)c2cc1OC`, the figure is 12.4 µg/mL (≈ 24.2 µM). Next, `Cn1c(-c2cccs2)[n+](C)c2ccccc21.[Cl-]`: more than 39.7 µg/mL. Consider `CC(C)C(NC(=O)c1ccc(Cl)cc1Cl)C(=O)N1CCC1` (centres undefined), for which the solubility (kinetic) is more than 49.4 µg/mL. `CCCCOC(=O)Nc1nnc(C(C)C)s1` displayed a solubility (kinetic) of more than 36.5 µg/mL. Next, `Cc1cc(C)cc(NC(=O)CN2CCN(C(=O)c3cccs3)CC2)c1`: more than 53.6 µg/mL. Next, `OC(CNCCc1c[nH]c2ccccc12)c1ccccc1` (centres undefined): 37 µg/mL (≈ 132 µM). Next, `Cc1cccn2c(=O)c(C=O)c(N3CCSCC3)nc12`: 16.2 µg/mL (≈ 56 µM); `O=C(NN1CCOCC1)c1cccc(Br)c1`: more than 42.8 µg/mL; `Cc1ccccc1OCC(=O)OCC(=O)c1ccc[nH]1`: more than 41 µg/mL. The compound `NS(=O)(=O)c1cccc(NC(=O)COC(=O)c2ccccc2SCC(=O)N2CCCC2)c1` gave a kinetic solubility of more than 71.6 µg/mL. The compound `O=C(O)Cc1ccc(-n2cccc2)cc1` returned a solubility (kinetic) of more than 30.2 µg/mL. Compound `Oc1ccc(NCc2cccc(OCc3ccccc3)c2)cc1` gave a kinetic solubility of 38.1 µg/mL (≈ 125 µM). For the compound `COC(=O)Cc1ccc2oc(-c3cccnc3)nc2c1`, the kinetic solubility worked out at 37 µg/mL (≈ 138 µM). This solubility kinetic and that of the compound before are within 1.5-fold of each other. For the compound `CCc1ccc(C(=O)N2CCCN(C)CC2)s1`, the solubility (kinetic) is more than 37.9 µg/mL. `CC1(C)CC(=O)c2cnc(N3CCc4ccccc43)nc2C1`: the kinetic solubility worked out at 0.4 µg/mL (≈ 1.36 µM). `COc1cc2c(cc1OC)C(NC(=O)c1ccc(C)cc1)CC2=O` (centres undefined) displayed a kinetic solubility of 4.6 µg/mL (≈ 14.1 µM). As for `CC1(C2CC2)NC(=O)N(CC(=O)Nc2ccccc2C#N)C1=O` (centres undefined), the figure is more than 46.8 µg/mL. Next, `Cc1ccc(NC(=O)COc2ccc(N(C)C(=O)C(C)(C)C)cc2)cc1S(=O)(=O)N1CCCCC1`: 6.7 µg/mL (≈ 13.4 µM).

For `CCOc1cccc2cc(C(=O)NCc3ccc(C)cc3)c(=N)oc12`, the solubility (kinetic) came out at 2.4 µg/mL (≈ 7.13 µM). As for `Cc1cc(C)cc(N(C(C)C(=O)N2CCCC2)S(C)(=O)=O)c1` (centres undefined), the figure is more than 48.7 µg/mL; as for `CCc1ccc2oc(-c3ccc(NC(C)=O)cc3)nc2c1`, 0.8 µg/mL (≈ 2.85 µM).

Take `COc1ccc(NC(=O)c2cc(C)nc3ccccc23)c(OC)c1`: the solubility (kinetic) was more than 48.4 µg/mL. As to `Cc1ccccc1NC(=S)Nc1cccc2cnccc12`, the kinetic solubility came to 34.2 µg/mL (≈ 117 µM). As for `O=c1nc(Nc2ccc([N+](=O)[O-])cc2)[nH]c(=O)[nH]1`, the figure is 26.2 µg/mL (≈ 105 µM); as for `O=S(=O)(NCc1c(Cl)cccc1Oc1ccccc1)c1ccccc1`, 3 µg/mL (≈ 8.02 µM).

Compound `CC(OCCN(C)C)C(=O)C12CC3CC(CC(C3)C1)C2.Cl` (centres undefined) returned a kinetic solubility of 46.8 µg/mL. Next, `N#Cc1c(SCC(N)=O)nc2c(c1-c1ccncc1)CCCC2`: more than 48.7 µg/mL. Next, `O=C(NCc1ccccc1)c1cnc(Cl)c(Cl)c1`: 35.9 µg/mL (≈ 128 µM); `CN(C)c1ncc([N+](=O)[O-])cc1C(F)(F)F`: 5.2 µg/mL (≈ 22.1 µM); `Cc1cc(NC(=O)c2cccnc2)ccc1Br`: 40.2 µg/mL (≈ 138 µM).

In turn, `O=CN1CCN(C(=O)c2ccc(Br)o2)CC1` showed a solubility (kinetic) of more than 43.1 µg/mL. As for `CC(=O)c1cccc(NC(=O)c2cc(=O)[nH]c3ccccc23)c1`, the figure is 12.5 µg/mL (≈ 40.8 µM); as for `COc1ccccc1NC(=O)c1ccc2c(c1)C(=O)N(Cc1ccco1)C2=O`, less than 0.4 µg/mL; as for `CCCCNC(=O)C1CC(=O)N(CCc2ccccc2)C1` (centres undefined), more than 43.3 µg/mL. Next, `CCOc1ccc2nc(Cl)sc2c1`: less than 0.5 µg/mL; `COC1(NC(=O)c2ccccc2)C(C)=CC(=O)C=C1C`: 40 µg/mL (≈ 147 µM); `CCNC(=O)c1ccccc1-c1nc(-c2ccccc2OC)no1`: 42.3 µg/mL (≈ 131 µM). Compound `CCN1CCN(C(=O)/C=C/c2ccc(OC)cc2)CC1` came in with a kinetic solubility of more than 41.2 µg/mL. As for `Cc1sc2c3ccsc3ccc2[n+]1C.[I-]`, the figure is 36.3 µg/mL; as for `Cc1nnc(NC(=O)CN2C(=O)NC3(CCCC3)C2=O)s1`, more than 46.4 µg/mL. As for `S=C(Nc1ccccc1)Nc1ccc(Br)cc1`, the figure is 5.6 µg/mL (≈ 18.2 µM); as for `COc1ccccc1C(=O)Nc1nc2cc3c(cc2s1)OCO3`, less than 0.4 µg/mL. As for `O=C(O)c1cn2c3c(ccc(Cl)c3c1=O)OCC2`, the figure is more than 39.8 µg/mL; as for `O=[N+]([O-])c1ccc2nc(NS(=O)(=O)c3ccc(F)cc3)sc2c1`, 49.7 µg/mL (≈ 141 µM); as for `Oc1ccccc1N1CCN(c2ccc3ccccc3n2)CC1`, 4.2 µg/mL (≈ 13.8 µM).

`CCn1c(C)c(C(=O)O)c2cc(OC)c3ccccc3c21` displayed a kinetic solubility of 16.8 µg/mL (≈ 59.3 µM). As for `Cn1c(=O)n(C)c2cc(S(=O)(=O)NCC(=O)O)ccc21`, the figure is more than 44.9 µg/mL; as for `CCCC(=O)Oc1ccc(C2NC(=O)c3ccccc3O2)cc1OC` (centres undefined), 3.9 µg/mL (≈ 11.4 µM). As for `O=S(=O)(Cc1ccccc1)Nc1cccc(F)c1`, the figure is 37.6 µg/mL (≈ 142 µM); as for `COc1cc(C(=O)NC2CCCCCCC2)cc(OC)c1OC`, less than 0.7 µg/mL. As for `Cc1ccc(C(=O)N2CC=C(c3ccccc3)CC2)o1`, the figure is 39.1 µg/mL (≈ 146 µM); as for `Br.Fc1ccc(CNCC2CCCO2)cc1` (centres undefined), 39.1 µg/mL.

In the case of `Cc1ccc(OCCC(=O)OCC(=O)NC2CCCC2)cc1`, the solubility (kinetic) was more than 45.8 µg/mL.
